This is an account of results in ChEMBL document CHEMBL1269002, “A protecting group-free synthesis of deazathiamine: a step toward inhibitor design” (Bioorg Med Chem Lett, 2010).

Experiment [1] can be described thus: Inhibition of Mycobacterium tuberculosis 2-hydroxy-3-oxoadipate synthase-catalyzed reduction of ferricyanide.
The nature of experiment [2]: Competitive inhibition of Mycobacterium tuberculosis 2-hydroxy-3-oxoadipate synthase-catalyzed reduction of ferricyanide.

`Cc1ncc(Cc2csc(CCOP(=O)(O)OP(=O)(O)O)c2C)c(N)n1`: in experiment [1], the IC50 – broadly, the midpoint of a concentration-inhibition curve – stood at 6.7 µM. Further, the Ki (in general, the dissociation constant of the complex between target and ligand, obtained from inhibition or displacement) in experiment [2] is 3.5 µM.

`Cc1ncc(Cc2csc(CCO)c2C)c(N)n1` [3-DEAZATHIAMINE]: the IC50 in experiment [1] stood at 144 µM. The Ki in experiment [2] amounted to 76 µM.
